The test system of series [1] is Lepeophtheirus pre-adult lice. In words: Feed trials: removal of pre-adult sea lice from fish fed medicated feed. Format: in vivo. The note with it: for Lice removed by 11 days after last day of treatment / Lice removed by 3 days after last day of treatment: Feed Trial Number One; for Lice removed by 2 days after last day of treatment / Lice removed by 9 days after last day of treatment: Feed Trial Number Two. As to the method: Empyreal™ 75, a processed corn protein concentrate, was mixed with imidacloprid to form a pre-mix. This pre-mix was then added to salmon feeds using fish oil to help coat it onto the pellets to prepare the medicated feed.
Medicated feed for fish was prepared based on the amount of feed that the fish were consuming each day to give a total dosage to different tanks of fish of 10, 20, 40, 60 and 100 milligrams of active ingredient (imidacloprid) over a 5 day period. Experiments were run using total dosages given over 5 days of feeding. A 5 day period was used to provide efficacy, convenience and safety.
Individual fish weights ranged from 62 to 188 grams.
Sea lice have a number of developmental stages on salmon of which two are pre-adults that do a lot of damage to the fish (e.g. Lepeophtheirus pre-adult I, Lepeophtheirus pre-adult II, Caligus pre-adult I, Caligus pre-adult II). Compositions were tested on the two pre-adult stages of Lepeophtheirus. The disclosed compositions are also useful for killing sea lice in the adult male and adult female and adult gravid female stage and the juvenile chalimus stages.

Series [2] in a line: Tolerance of fish at five times the 20 mg/kg total dosage (mortalities, histology). Format: in vivo, salmon.
In another series the test system is salmon lice. The note with it: 100 ppm bath; in one hour; U.S. Pat. No. 5,504,081; cited from earlier work.
The next series concerns L. salmonis. The note with it: in-feed 1, 5 or 10 mg/kg/day for 7 days; WO 2014/064184; cited from earlier work.
Setting [3] is: 8 mg/kg fish per day, total 40 mg/kg.
[4] abbreviates: 12 mg/kg fish per day, total 60 mg/kg.
The mark [5] stands for this setting: 2 mg/kg fish per day, total 10 mg/kg.

Values joined by “and” are separate entries in the source; they are usually repeats but may differ in a detail not shown here. Identical values can stand only once.

In series [1] (4 mg per kilogram per day for five days, three days into the five-day treatment), `O=[N+]([O-])NC1=NCCN1Cc1ccc(Cl)nc1` [Imidacloprid, (2E)-1-((6-chloropyridin-3-yl)methyl)-N-nitroimidazolidin-2-imine] showed a Lepeophtheirus lice removed of 13.6%. The “Lice removed by 11 days after last day of treatment” value was determined as 100% in series [1] (4 mg/kg fish per day, total 20 mg/kg, 16 days after treatment had started); 100% in series [1] (4 mg/kg fish per day, total 20 mg/kg, 16 days after treatment had started, listed as imidacloprid); 97.84%^ in series [1] (setting [3]); 100% in series [1] (setting [4]). Moreover, the “Lice removed by 3 days after last day of treatment” value in series [1] (4 mg/kg fish per day, total 20 mg/kg, eight days after the treatment had started) was 96.70% and 96.75%; in series [1] (4 mg/kg fish per day, total 20 mg/kg, eight days after the treatment had started, listed as imidacloprid), 96.75%; in series [1] (setting [3]), 97.84%; in series [1] (setting [4]), 100%. Also, the “Lice removed by 2 days after last day of treatment” value is reported as 64.28% in series [1] (setting [5]) and 88.37% in series [1] (20 mg/kg fish per day, total 100 mg/kg). Moreover, the “Lice removed by 9 days after last day of treatment” value amounted to 77.67% in series [1] (setting [5]) and 77.7% in series [1] (2 mg/kg fish per day, total 10 mg/kg, listed as imidacloprid). For the same compound, the removal of lice entry in series [1] (higher dosages trialed, 40, 60 and 100 milligrams total) is “very effective removal of lice”. In addition, the “abnormalities on histological examination of organs” value in series [2] (100 mg/kg total dosage) was “no abnormalities detectable”. In addition, the mortalities result in series [2] (100 mg/kg total dosage (five times the 20 mg/kg total dosage)) is given as “no mortalities”. Besides, the lice killed in the series on salmon lice was 100%.
On to `CN/C(=N\[N+](=O)[O-])NCc1cnc(Cl)s1` [clothianidin], for which the sea lice elimination entry in the series with L. salmonis is “full sea lice elimination”.
